Experimental data taken from US20250281457A1, “TREATMENT OR PREVENTION OF DENGUE VIRAL INFECTION” (Janssen Pharmaceuticals, Inc., priority 2022, published 2025).
Read-outs that look alike come from different tables or passages of the source.

Test: Effect of food on plasma pharmacokinetics after single oral dose of SF2a/b (Example 2)
Type: in vivo, human
Conditions: for AUC(0-t) / AUC(0-inf) / Cmax / half-life / Tmax: both sexes, human, plasma, oral; for Tmax: read-out: tmax, Median
Procedure: The effect of food on the pharmacokinetics (PK) of Compound (a) was assessed in healthy participants after a single oral dose of SF2a/b, described in Example 1, administered at different dose levels in a randomized single dose, 2-period crossover study. The effect of food on the PK of Compound (a) was determined at 3 different dose levels (50 mg, 200 mg, and 800 mg) for a standardized breakfast; at one dose level (800 mg) for a high-fat, high-calorie breakfast; at two dose levels (200 mg and 800 mg) for a low-fat, low-calorie breakfast, as well as for a low-fat, high-calorie breakfast. 124 healthy adult participants (male and female, 18 to 55 years of age) were enrolled in this study. The volunteers were divided in six panels, which were organized as follows: • Panel […]: • Treatment D: A single 800-mg dose (4×200-mg tablets) of Compound (a) SF2b in fasted conditions. • Treatment E: A single 800-mg dose (4×200-mg tablets) of Compound (a) SF2b in fed conditions (standardized breakfast). • Treatments D and E (treatment sequence group 1 [n=8]: DE; treatment sequence group 2 [n=8]: ED). Panel 4, n=14: • Treatment F: A single 200-mg dose (1×200-mg tablet) of Compound (a) SF2b in fasted conditions. • Treatment G: A single 200-mg dose (1×200-mg tablet) of Compound (a) SF2b, in fed conditions (standardized breakfast). • Treatments F and G (treatment sequence group 1 [n=7]: FG; treatment sequence group 2 [n=7]: GF). Panel […]: • Treatment H: A single 50-mg dose (1×50-mg tablet) of Compound (a) SF2a in fasted conditions. • Treatment I: A single 50-mg dose (1×50-mg tablet) of Compound (a) SF2a in fed conditions (standardized breakfast). • Treatments H and I (treatment sequence group 1 [n=7]: HI; treatment sequence group 2 [n=7]: IH). Panel 6 (n=16): • Treatment J: single 800-mg dose (4×200-mg tablets) of Compound (a) administered as SF2b in fasted conditions. • Treatment K: single 800-mg dose (4×200-mg tablets) of Compound (a) administered as SF2b in fed conditions (high-fat, high-calorie breakfast). • Treatments J and K (treatment sequence group 1 [n=8]: JK; treatment sequence group 2 [n=8]: KJ). Panel 7 (n=32): • Treatment L: single 800-mg dose (4×200-mg tablets) of Compound (a) administered as SF2b in fed conditions (low-fat, low-calorie breakfast). • Treatment M: single 800-mg dose (4×200-mg tablets) of Compound (a) administered as SF2b in fed conditions (low-fat, high-calorie breakfast). • Treatment L (n=16) or Treatment M (n=16). Panel 8 (n=32): • Treatment N: single 200-mg dose (1×200-mg tablet) of Compound (a) administered as SF2b in fed conditions (low-fat, low-calorie breakfast). • Treatment O: single 200-mg dose (1×200-mg tablet) of Compound (a) administered as SF2b in fed conditions (low-fat, high-calorie breakfast). • Treatment N (n=16) or Treatment O (n=16). Tablets were administered orally, together with approximately 240 mL of non-carbonated water, in fasted or fed conditions. […] On day 1 of all treatments in each panel, the participants had fasted overnight for at least 10 hours before study drug intake. Intake of water was not allowed from 2 hours before and until 2 hours after study drug intake, except for the water used for study drug intake and breakfast. In case of intake in fed conditions, study drug was administered within 10 minutes after completing a standardized breakfast (Treatments E, G, and I), or a high-fat, high-calorie breakfast (Treatment K), a low-fat, low-calorie breakfast (Treatments L and N), or a low-fat, high-calorie breakfast (Treatments M and O). For treatments E, G, and I a standardized breakfast was served, consisting of (or its equivalent) 4 slices of bread, 2 slices of ham or cheese, butter, jelly, and 1 or 2 cups (up to 355 mL) of decaffeinated coffee or tea with milk and/or sugar, if desired (containing approximately: fat: 21 g, carbohydrates: 67 g, proteins: 19 g; total calories: 533 kcal). For treatment K in a high-fat, high-calorie breakfast was served. […]

[1] = 50 mg SF2a, standardized breakfast vs fasted
[2] = 200 mg SF2b, low-fat, high-calorie vs standardized breakfast
[3] = 200 mg SF2b, low-fat, low-calorie vs standardized breakfast
[4] = 200 mg SF2b, standardized breakfast vs fasted
[5] = 800 mg SF2b, high-fat, high-calorie breakfast vs fasted
[6] = 800 mg SF2b, low-fat, high-calorie vs standardized breakfast
[7] = 800 mg SF2b, low-fat, low-calorie vs standardized breakfast
[8] = 800 mg SF2b, standardized breakfast vs fasted

COc1cc(NC(C(=O)c2c[nH]c3ccc(OC(F)(F)F)cc23)c2ccc(Cl)cc2OC)cc(S(C)(=O)=O)c1 (centres unmarked) [Compound (a)]
AUClast, Geometric Mean Ratio Treatment I vs Treatment H [1]: 120.38% | AUC∞, Geometric Mean Ratio Treatment I vs Treatment H [1]: 121.24% | Cmax, Geometric Mean Ratio Treatment I vs Treatment H [1]: 132.83% | AUClast, Geometric Mean Ratio Treatment O vs Treatment G [2]: 66.47% | AUC∞, Geometric Mean Ratio Treatment O vs Treatment G [2]: 67.23% | Cmax, Geometric Mean Ratio Treatment O vs Treatment G [2]: 72.81% | AUClast, Geometric Mean Ratio Treatment N vs Treatment G [3]: 73.28% | AUC∞, Geometric Mean Ratio Treatment N vs Treatment G [3]: 73.61% | Cmax, Geometric Mean Ratio Treatment N vs Treatment G [3]: 72.54% | AUClast, Geometric Mean Ratio Treatment G vs Treatment F [4]: 168.45% | AUC∞, Geometric Mean Ratio Treatment G vs Treatment F [4]: 172.00% | Cmax, Geometric Mean Ratio Treatment G vs Treatment F [4]: 176.07% | AUClast, Geometric Mean Ratio Treatment K vs Treatment J [5]: 391.52% | AUC∞, Geometric Mean Ratio Treatment K vs Treatment J [5]: 384.08% | Cmax, Geometric Mean Ratio Treatment K vs Treatment J [5]: 409.01% | AUClast, Geometric Mean Ratio Treatment M vs Treatment E [6]: 65.27% | AUC∞, Geometric Mean Ratio Treatment M vs Treatment E [6]: 69.35% | Cmax, Geometric Mean Ratio Treatment M vs Treatment E [6]: 60.73% | AUClast, Geometric Mean Ratio Treatment L vs Treatment E [7]: 60.37% | AUC∞, Geometric Mean Ratio Treatment L vs Treatment E [7]: 64.71% | Cmax, Geometric Mean Ratio Treatment L vs Treatment E [7]: 60.56% | AUClast, Geometric Mean Ratio Treatment E vs Treatment D [8]: 241.23% | AUC∞, Geometric Mean Ratio Treatment E vs Treatment D [8]: 238.11% | Cmax, Geometric Mean Ratio Treatment E vs Treatment D [8]: 277.77% | relative bioavailability for AUClast, standardized breakfast compared to fasted (SF2a/b, 50 mg dose): 124% | relative bioavailability for Cmax, standardized breakfast compared to fasted (SF2a/b, 50 mg dose): 133% | relative bioavailability for AUClast, standardized breakfast compared to fasted (SF2a/b, 800 mg dose): 243% | relative bioavailability for Cmax, standardized breakfast compared to fasted (SF2a/b, 800 mg dose): 278% | exposure, high-fat, high-calorie breakfast compared to fasted conditions (SF2a/b, single dose 800 mg): approximately 4 times higher | tlast, Median (Treatment D: single 800 mg (SF2b), fasted): 840.00 h | tlast, Median (Treatment E: single 800 mg (SF2b), fed, standardized breakfast): 840.00 h | tlast, Median (Treatment F: single 200 mg (SF2b), fasted): 840.00 h | tlast, Median (Treatment G: single 200 mg (SF2b), fed, standardized breakfast): 840.00 h | tlast, Median (Treatment H: single 50 mg (SF2a), fasted): 840.00 h | tlast, Median (Treatment I: single 50 mg (SF2a), fed, standardized breakfast): 840.00 h | AUC(0-t) (50 mg, 50 mg SF2a, fasted, linear mixed effects model (Table 5C), read-out: AUClast, Geometric Mean Treatment H): 17900 ng·h/mL | AUC(0-inf) (50 mg, 50 mg SF2a, fasted, linear mixed effects model (Table 5C), read-out: AUC∞, Geometric Mean Treatment H): 18700 ng·h/mL | Cmax (50 mg, 50 mg SF2a, fasted, linear mixed effects model (Table 5C), read-out: Cmax, Geometric Mean Treatment H): 193 ng/mL | AUC(0-t) (50 mg, 50 mg SF2a, standardized breakfast, linear mixed effects model (Table 5C), read-out: AUClast, Geometric Mean Treatment I): 21600 ng·h/mL | AUC(0-inf) (50 mg, 50 mg SF2a, standardized breakfast, linear mixed effects model (Table 5C), read-out: AUC∞, Geometric Mean Treatment I): 22700 ng·h/mL | Cmax (50 mg, 50 mg SF2a, standardized breakfast, linear mixed effects model (Table 5C), read-out: Cmax, Geometric Mean Treatment I): 257 ng/mL | AUC(0-t) (50 mg, Treatment H: single 50 mg (SF2a), fasted, read-out: AUClast, Geo. Mean): 18000 ng·h/mL | AUC(0-t) (50 mg, Treatment H: single 50 mg (SF2a), fasted, read-out: AUClast, Mean): 19900 ng·h/mL | AUC(0-t) (50 mg, Treatment H: single 50 mg (SF2a), fasted, read-out: AUClast, Median): 18500 ng·h/mL | AUC(0-inf) (50 mg, Treatment H: single 50 mg (SF2a), fasted, read-out: AUC∞, Geo. Mean): 18800 ng·h/mL | AUC(0-inf) (50 mg, Treatment H: single 50 mg (SF2a), fasted, read-out: AUC∞, Mean): 21000 ng·h/mL | AUC(0-inf) (50 mg, Treatment H: single 50 mg (SF2a), fasted, read-out: AUC∞, Median): 18800 ng·h/mL | Cmax (50 mg, Treatment H: single 50 mg (SF2a), fasted, read-out: Cmax, Geo. Mean): 195 ng/mL | Cmax (50 mg, Treatment H: single 50 mg (SF2a), fasted, read-out: Cmax, Mean): 214 ng/mL | Cmax (50 mg, Treatment H: single 50 mg (SF2a), fasted, read-out: Cmax, Median): 208 ng/mL | half-life (50 mg, Treatment H: single 50 mg (SF2a), fasted, read-out: t1/2, term, Geo. Mean (converted)): 167 h | half-life (50 mg, Treatment H: single 50 mg (SF2a), fasted, read-out: t1/2, term, Mean (converted)): 176 h | half-life (50 mg, Treatment H: single 50 mg (SF2a), fasted, read-out: t1/2, term, Median (converted)): 162 h | Tmax (50 mg, Treatment H: single 50 mg (SF2a), fasted): 7 h | AUC(0-t) (50 mg, Treatment I: single 50 mg (SF2a), fed, standardized breakfast, read-out: AUClast, Geo. Mean): 21100 ng·h/mL | AUC(0-t) (50 mg, Treatment I: single 50 mg (SF2a), fed, standardized breakfast, read-out: AUClast, Mean): 22900 ng·h/mL | AUC(0-t) (50 mg, Treatment I: single 50 mg (SF2a), fed, standardized breakfast, read-out: AUClast, Median): 20400 ng·h/mL | AUC(0-inf) (50 mg, Treatment I: single 50 mg (SF2a), fed, standardized breakfast, read-out: AUC∞, Geo. Mean): 22100 ng·h/mL | AUC(0-inf) (50 mg, Treatment I: single 50 mg (SF2a), fed, standardized breakfast, read-out: AUC∞, Mean): 24600 ng·h/mL | AUC(0-inf) (50 mg, Treatment I: single 50 mg (SF2a), fed, standardized breakfast, read-out: AUC∞, Median): 20800 ng·h/mL | Cmax (50 mg, Treatment I: single 50 mg (SF2a), fed, standardized breakfast, read-out: Cmax, Geo. Mean): 257 ng/mL | Cmax (50 mg, Treatment I: single 50 mg (SF2a), fed, standardized breakfast, read-out: Cmax, Mean): 288 ng/mL | Cmax (50 mg, Treatment I: single 50 mg (SF2a), fed, standardized breakfast, read-out: Cmax, Median): 267 ng/mL | half-life (50 mg, Treatment I: single 50 mg (SF2a), fed, standardized breakfast, read-out: t1/2, term, Geo. Mean (converted)): 174 h | half-life (50 mg, Treatment I: single 50 mg (SF2a), fed, standardized breakfast, read-out: t1/2, term, Mean (converted)): 185 h | half-life (50 mg, Treatment I: single 50 mg (SF2a), fed, standardized breakfast, read-out: t1/2, term, Median (converted)): 159 h | Tmax (50 mg, Treatment I: single 50 mg (SF2a), fed, standardized breakfast): 6.5 h | AUC(0-t) (200 mg, 200 mg SF2b, fasted, linear mixed effects model (Table 5B), read-out: AUClast, Geometric Mean Treatment F): 60500 ng·h/mL | AUC(0-inf) (200 mg, 200 mg SF2b, fasted, linear mixed effects model (Table 5B), read-out: AUC∞, Geometric Mean Treatment F): 60500 ng·h/mL | Cmax (200 mg, 200 mg SF2b, fasted, linear mixed effects model (Table 5B), read-out: Cmax, Geometric Mean Treatment F): 559 ng/mL | AUC(0-t) (200 mg, 200 mg SF2b, fed, low-fat, high-calorie breakfast, read-out: AUClast, Geometric LS Means Treatment O): 65200 ng·h/mL | AUC(0-inf) (200 mg, 200 mg SF2b, fed, low-fat, high-calorie breakfast, read-out: AUC∞, Geometric LS Means Treatment O): 69300 ng·h/mL | Cmax (200 mg, 200 mg SF2b, fed, low-fat, high-calorie breakfast, read-out: Cmax, Geometric LS Means Treatment O): 700 ng/mL | AUC(0-t) (200 mg, 200 mg SF2b, fed, low-fat, low-calorie breakfast, read-out: AUClast, Geometric LS Means Treatment N): 71900 ng·h/mL | AUC(0-inf) (200 mg, 200 mg SF2b, fed, low-fat, low-calorie breakfast, read-out: AUC∞, Geometric LS Means Treatment N): 75800 ng·h/mL | Cmax (200 mg, 200 mg SF2b, fed, low-fat, low-calorie breakfast, read-out: Cmax, Geometric LS Means Treatment N): 697 ng/mL | AUC(0-t) (200 mg, 200 mg SF2b, fed, standardized breakfast (Tables 5E, 5G), read-out: AUClast, Geometric LS Means Treatment G): 98200 ng·h/mL
